Measurements taken from ChEMBL document CHEMBL1201862, “PubChem BioAssay data set” (2004).
Activity calls are given as the source filed them.

Legend:
Estrogen receptor beta = Estrogen receptor beta (Homo sapiens, UniProt Q92731);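 further: recombinant ER-beta bound to coactivator SRC1 peptide in presence of estradiol agonist; inhibitors block coactivator peptide binding and lower the FRET signal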
[1] = target: T1, Sentrin-specific protease 8 (Homo sapiens, UniProt Q96LD8); format: functional;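 further: luminescence read-out of SENP8 inhibition, dose-response confirmation following an ultra-high-throughput screen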
T1 sequence (Q96LD8 whole entry): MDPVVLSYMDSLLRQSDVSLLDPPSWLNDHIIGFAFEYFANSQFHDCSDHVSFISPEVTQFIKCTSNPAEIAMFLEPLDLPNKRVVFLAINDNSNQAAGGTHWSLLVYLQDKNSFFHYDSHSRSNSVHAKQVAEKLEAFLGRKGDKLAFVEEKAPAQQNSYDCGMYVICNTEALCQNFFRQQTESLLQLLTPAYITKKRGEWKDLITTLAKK

[2] = Luminescence Cell-Based Dose Confirmation HTS to Identify Activators of 5'UTR Stem-Loop Driven Alpha-Synuclein mRNA Translation in H4 Neuroglioblastoma Cells. [Related pubchem assays: 1829 (Project Summary), 1814 (Primary HTS)]; format: functional
Caspase-3 = target: T2, Caspase-3 (Homo sapiens, UniProt P42574); format: functional;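 further: Dose-response selectivity test against caspase-3 for candidate inhibitors of sentrin-specific proteases (SENPs)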
T2 sequence (P42574 whole entry): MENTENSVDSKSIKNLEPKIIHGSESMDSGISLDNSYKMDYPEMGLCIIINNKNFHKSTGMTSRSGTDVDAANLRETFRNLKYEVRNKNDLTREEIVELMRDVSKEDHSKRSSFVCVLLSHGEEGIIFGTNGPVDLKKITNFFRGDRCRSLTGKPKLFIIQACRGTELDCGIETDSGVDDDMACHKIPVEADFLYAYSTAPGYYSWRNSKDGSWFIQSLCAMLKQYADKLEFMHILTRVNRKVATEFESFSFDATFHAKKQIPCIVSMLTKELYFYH

[3] = target: T3, Sentrin-specific protease 6 (Homo sapiens, UniProt Q9GZR1); format: functional;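 further: Luminescence-based dose-response confirmatory assay of SENP6 inhibition, following up an ultra-high-throughput screen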
T3 sequence (Q9GZR1 whole entry): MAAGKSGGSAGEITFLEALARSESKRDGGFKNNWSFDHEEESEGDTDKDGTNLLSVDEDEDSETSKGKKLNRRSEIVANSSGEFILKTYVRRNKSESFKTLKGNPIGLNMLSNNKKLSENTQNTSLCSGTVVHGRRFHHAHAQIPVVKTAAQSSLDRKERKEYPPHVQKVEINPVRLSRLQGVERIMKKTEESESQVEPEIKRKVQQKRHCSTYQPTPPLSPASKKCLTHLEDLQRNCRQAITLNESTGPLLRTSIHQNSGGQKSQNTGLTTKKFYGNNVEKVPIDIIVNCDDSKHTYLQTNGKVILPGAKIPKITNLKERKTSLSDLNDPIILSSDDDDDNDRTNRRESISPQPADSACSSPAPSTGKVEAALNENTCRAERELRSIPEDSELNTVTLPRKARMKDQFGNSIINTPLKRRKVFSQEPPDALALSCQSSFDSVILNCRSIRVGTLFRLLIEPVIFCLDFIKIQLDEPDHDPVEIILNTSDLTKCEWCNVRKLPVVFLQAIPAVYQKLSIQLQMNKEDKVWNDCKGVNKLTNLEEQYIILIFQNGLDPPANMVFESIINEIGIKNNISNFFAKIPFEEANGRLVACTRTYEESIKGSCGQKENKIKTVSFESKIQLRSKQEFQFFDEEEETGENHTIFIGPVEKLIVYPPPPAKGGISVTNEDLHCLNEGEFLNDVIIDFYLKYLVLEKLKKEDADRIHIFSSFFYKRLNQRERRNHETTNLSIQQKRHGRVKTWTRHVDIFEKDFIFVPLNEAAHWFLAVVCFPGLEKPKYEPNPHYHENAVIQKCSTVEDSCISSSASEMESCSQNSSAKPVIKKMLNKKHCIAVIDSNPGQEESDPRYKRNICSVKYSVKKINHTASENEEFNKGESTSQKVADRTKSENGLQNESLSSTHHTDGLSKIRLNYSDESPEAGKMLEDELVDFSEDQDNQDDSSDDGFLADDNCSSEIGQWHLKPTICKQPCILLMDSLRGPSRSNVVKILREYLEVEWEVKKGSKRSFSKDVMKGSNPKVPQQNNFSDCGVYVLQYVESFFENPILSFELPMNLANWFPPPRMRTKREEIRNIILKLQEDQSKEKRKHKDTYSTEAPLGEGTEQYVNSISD

H4 = test: Luminescence Cell-Based Dose Response HTS to Identify Activators of 5'UTR Stem-Loop Driven Prion Protein mRNA Translation in H4 Neuroglioblastoma Cells. [Related pubchem assays: 1829 (Project Summary), 1814 (Primary HTS)]; format: functional; conditions: Homo sapiens
[4] = target: T4, Sentrin-specific protease 7 (Homo sapiens, UniProt Q9BQF6); format: functional;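 further: Luminescence-based dose-response confirmation of ultra-high-throughput screening hits, measuring inhibition of SENP7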
T4 sequence (Q9BQF6 whole entry): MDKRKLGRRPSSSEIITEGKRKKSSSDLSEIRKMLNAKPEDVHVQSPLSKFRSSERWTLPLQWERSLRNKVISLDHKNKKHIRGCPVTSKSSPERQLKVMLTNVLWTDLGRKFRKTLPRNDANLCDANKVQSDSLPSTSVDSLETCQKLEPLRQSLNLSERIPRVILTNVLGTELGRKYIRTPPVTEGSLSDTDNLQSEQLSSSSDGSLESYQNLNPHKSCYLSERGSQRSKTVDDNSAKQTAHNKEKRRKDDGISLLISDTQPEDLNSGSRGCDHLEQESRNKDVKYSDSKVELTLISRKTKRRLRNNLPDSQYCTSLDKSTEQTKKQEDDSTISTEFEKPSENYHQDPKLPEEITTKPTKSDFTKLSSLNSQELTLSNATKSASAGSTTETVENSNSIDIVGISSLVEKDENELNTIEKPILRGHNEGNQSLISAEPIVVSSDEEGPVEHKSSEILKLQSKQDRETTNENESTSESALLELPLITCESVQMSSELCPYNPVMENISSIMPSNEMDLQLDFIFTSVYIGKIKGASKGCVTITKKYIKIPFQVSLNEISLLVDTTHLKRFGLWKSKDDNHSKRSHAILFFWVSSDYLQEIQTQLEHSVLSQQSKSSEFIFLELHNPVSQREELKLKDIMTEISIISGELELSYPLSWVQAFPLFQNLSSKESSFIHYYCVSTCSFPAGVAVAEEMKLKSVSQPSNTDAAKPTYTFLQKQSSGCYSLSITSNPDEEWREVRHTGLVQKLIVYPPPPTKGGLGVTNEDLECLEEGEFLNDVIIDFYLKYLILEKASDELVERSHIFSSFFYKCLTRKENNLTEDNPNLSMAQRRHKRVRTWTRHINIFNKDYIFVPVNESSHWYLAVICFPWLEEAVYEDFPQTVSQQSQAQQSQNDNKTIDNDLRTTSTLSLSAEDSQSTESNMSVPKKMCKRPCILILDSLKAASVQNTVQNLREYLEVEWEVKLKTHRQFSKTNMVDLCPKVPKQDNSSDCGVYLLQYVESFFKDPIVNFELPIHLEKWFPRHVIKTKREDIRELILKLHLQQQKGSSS

[5] = Luminescence Cell-Based Dose Response HTS to Identify Activators of Luciferase Translation or Activity in H4 […] Cells. [Related pubchem assays: 1829 (Project Summary), 1814 (Primary HTS)]; format: functional
Estrogen receptor = target: T5, Estrogen receptor (Homo sapiens, UniProt P03372);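 further: potency for inhibiting coactivator peptide recruitment to the receptor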
T5 sequence (P03372 whole entry): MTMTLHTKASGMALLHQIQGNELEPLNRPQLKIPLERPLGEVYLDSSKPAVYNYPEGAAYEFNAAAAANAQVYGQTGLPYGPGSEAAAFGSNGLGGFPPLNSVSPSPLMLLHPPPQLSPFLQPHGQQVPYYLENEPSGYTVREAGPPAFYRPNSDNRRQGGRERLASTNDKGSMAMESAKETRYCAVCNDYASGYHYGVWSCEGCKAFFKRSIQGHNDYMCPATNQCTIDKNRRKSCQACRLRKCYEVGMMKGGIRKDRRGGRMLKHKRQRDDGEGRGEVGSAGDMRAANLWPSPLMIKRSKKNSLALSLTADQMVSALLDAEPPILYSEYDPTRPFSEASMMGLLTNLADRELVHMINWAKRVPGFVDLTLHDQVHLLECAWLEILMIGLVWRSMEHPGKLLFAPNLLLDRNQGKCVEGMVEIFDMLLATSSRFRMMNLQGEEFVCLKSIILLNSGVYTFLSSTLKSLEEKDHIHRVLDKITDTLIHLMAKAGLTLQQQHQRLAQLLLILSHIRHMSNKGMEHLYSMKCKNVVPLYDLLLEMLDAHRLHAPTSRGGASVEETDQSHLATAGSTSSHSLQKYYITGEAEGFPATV

[6] = target: T6, Histone-lysine N-methyltransferase NSD2 (Homo sapiens, UniProt O96028); format: biochemical
T6 sequence (O96028 whole entry): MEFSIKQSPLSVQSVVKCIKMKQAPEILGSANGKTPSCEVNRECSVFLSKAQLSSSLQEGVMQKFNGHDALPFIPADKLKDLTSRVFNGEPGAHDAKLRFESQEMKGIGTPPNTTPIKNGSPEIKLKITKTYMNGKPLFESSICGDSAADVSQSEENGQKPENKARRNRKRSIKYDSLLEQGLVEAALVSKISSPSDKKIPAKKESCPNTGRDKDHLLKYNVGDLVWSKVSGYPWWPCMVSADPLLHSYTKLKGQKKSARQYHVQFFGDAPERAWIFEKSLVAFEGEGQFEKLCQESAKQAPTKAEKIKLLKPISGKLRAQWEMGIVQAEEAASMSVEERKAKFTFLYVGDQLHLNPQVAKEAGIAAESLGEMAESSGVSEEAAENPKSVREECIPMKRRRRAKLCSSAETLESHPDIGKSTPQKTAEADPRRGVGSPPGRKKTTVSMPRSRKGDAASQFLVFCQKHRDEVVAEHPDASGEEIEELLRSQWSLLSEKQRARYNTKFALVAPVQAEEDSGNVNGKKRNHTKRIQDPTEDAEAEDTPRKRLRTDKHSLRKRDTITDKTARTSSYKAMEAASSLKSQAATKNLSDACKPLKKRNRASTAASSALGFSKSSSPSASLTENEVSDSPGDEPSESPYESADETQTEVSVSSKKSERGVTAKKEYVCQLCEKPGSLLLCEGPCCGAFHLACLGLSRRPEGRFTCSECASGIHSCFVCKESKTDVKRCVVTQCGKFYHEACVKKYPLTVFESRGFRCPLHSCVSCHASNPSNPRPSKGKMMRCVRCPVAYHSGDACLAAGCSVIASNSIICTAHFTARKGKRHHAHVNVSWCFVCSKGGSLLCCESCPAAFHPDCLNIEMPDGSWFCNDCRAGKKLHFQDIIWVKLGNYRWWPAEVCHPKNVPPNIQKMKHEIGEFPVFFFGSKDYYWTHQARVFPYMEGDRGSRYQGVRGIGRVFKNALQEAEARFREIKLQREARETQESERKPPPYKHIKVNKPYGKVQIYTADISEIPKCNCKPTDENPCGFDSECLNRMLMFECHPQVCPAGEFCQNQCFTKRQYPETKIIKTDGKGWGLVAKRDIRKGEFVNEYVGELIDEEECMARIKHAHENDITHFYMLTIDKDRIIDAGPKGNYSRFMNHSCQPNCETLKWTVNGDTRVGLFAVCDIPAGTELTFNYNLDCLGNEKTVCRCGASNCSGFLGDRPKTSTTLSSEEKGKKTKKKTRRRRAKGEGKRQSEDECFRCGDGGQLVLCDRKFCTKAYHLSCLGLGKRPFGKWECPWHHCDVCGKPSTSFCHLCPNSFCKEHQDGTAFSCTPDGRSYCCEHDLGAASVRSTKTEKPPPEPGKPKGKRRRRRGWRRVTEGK

[7] = A Cell Based Secondary Assay To Explore Cytotoxicity of Compounds that Sensitize Mycobacterium Tuberculosis to Beta-Lactam Antibiotics.; format: functional
[8] = viability of uninfected HEp-2 cells – cell-based, HTS, cytotoxicity control for RSV inhibitor project, dose response (AID 2410); format: functional; conditions: human respiratory syncytial virus
[9] = viability of HCT116 lacking mutant beta-catenin – cell-based, human colon tumor, dose response (AID 1045); format: functional;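 further: HCT116 colon tumor cells with beta catenin knocked out; cells exposed to compound for 60 hours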
[10] = viability of PTEN-deleted HCT116 cells – cell-based, HCT116 PTEN knockout, dose response (AID 1047); format: functional;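 further: HCT116 colon tumor cells with PTEN knocked out; cells exposed to compound for 60 hours before readout; potency for loss of cell viability measured by luminescence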

Sequence of Estrogen receptor beta (Q92731 whole entry): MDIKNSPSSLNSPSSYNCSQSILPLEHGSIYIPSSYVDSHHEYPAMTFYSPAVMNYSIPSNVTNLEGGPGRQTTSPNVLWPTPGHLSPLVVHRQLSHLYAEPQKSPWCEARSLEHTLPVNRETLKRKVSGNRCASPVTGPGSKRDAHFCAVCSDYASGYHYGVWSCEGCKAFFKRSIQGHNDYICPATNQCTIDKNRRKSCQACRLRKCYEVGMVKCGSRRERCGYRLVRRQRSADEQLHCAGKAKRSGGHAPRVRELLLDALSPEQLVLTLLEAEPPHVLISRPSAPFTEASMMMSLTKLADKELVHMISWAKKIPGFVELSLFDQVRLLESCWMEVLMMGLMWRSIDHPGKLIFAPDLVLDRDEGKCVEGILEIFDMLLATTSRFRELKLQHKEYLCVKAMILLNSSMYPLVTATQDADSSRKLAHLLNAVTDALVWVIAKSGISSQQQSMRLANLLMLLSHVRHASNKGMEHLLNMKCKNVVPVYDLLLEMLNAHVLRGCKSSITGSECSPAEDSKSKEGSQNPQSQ

In the case of `CC(C)CSc1nc2c(c(=O)[nH]c(=O)n2C)n1CC(O)COc1cccc2ccccc12` (stereo not given), the IC50 (Estrogen receptor beta) is reported as > 50 µM (not active).

For `c1ccc(-c2nc(C3CCCCC3)no2)cc1`, the IC50 [1] was > 100 µM (inactive), the EC50 [2] was 32.8 µM (active) and the IC50 (Caspase-3) was 57.1 µM (active). For the same compound, the IC50 [3] was 66.3 µM (active), the IC50 (Estrogen receptor beta) was > 50 µM (not active) and the EC50 (H4) was > 120 µM (not active). For the same compound, the IC50 [4] was 23.2 µM (active) and the EC50 [5] was 0.896 µM (active).

With `COC(=O)c1ccc2c(c1)N(Cc1nc(-c3cccc(C)c3)oc1C)C(=O)C1CCCN21` (stereo not given) the IC50 (Estrogen receptor) was > 50 µM (not active).

In the case of `CNCCCC1Sc2ccccc2Oc2ccccc21` (stereo not given), the AC50 [6] is reported as 9.84 µM (active).

In the case of `CC(=O)N(C(C)=O)c1c(C#N)c(C)n(-c2ccccc2)c1C(=O)c1ccccc1`, the IC50 (Estrogen receptor) is reported as > 50 µM (not active).

With `Cc1cc(C)n2nc(SCc3cc(=O)oc4cc(O)ccc34)nc2n1` the IC50 (Estrogen receptor) was 10.1 µM (active).

In the case of `Cc1nc2sc3c(c2c2nnc(SCC(=O)NCc4ccco4)n12)CCCC3`, the CC50 [7] is reported as 31.8 µM (active).

With `CCC(C)NCCOCCOc1ccc(Cl)c2ccccc12` (stereo not given) the CC50 [7] was 18.4 µM (active).

For `COC(=O)C1=C(C)NC(=O)/C1=C\c1cc(C)n(-c2c(C)cccc2C)c1C`, the CC50 [7] was > 40 µM (active) and the CC50 [8] was 1.88 µM (active).

With `Cc1ccsc1/C=N/Nc1ncc(Cl)cc1Cl` the CC50 [7] was 32.4 µM (active), the EC50 [9] was 15.5 µM (active) and the EC50 [10] was 12.9 µM (active).
